Experiments:
[1] = test system: normal mice with post-prandial hyperglycaemia; experiment: glycaemia of normal mice with post-prandial hyperglycaemia; type: in vivo, Swiss albino mice; details: 0.5 mg/mouse by gastric intubation; for GLYCAEMIA AT T0: T0, before administration; for GLYCAEMIA AT T60: T60, one hour after administration; for % inhibition: glycaemia T60 versus T0
Protocol: (§1) The hypoglycaemic activity of the mixtures I and II, of sodium oxamate and of the compounds of formula (I) have been determined in mice made diabetic with streptozocin and in normal mice with post-prandial hyperglycaemia according to the following procedures:
II—Normal Mice with Post-prandial Hyperglycaemia
Swiss albino mice weighing between 22 and 25 g are made to have post-prandial hyperglycaemia by the following procedure:
food in excess for 1 hour
The glycaemia is measured at the end of the last two hours of fasting, which constitutes the glycaemia at time T0. The mice are then divided into homogeneous batches according to the measured glycaemias. The products to be evaluated are administered without delay by gastric intubation in 0.4 ml of distilled water. The control batch receives the excipient (0.4 ml of distilled water). After one hour, the final glycaemias are measured which constitute the glycaemia at time T60.

[2] = test system: mice made diabetic with streptozotocin; experiment: glycaemia of mice made diabetic with streptozotocin; type: in vivo, Swiss albino mice; details: for GLYCAEMIA AT D5 / % change in glycaemia: 0.5 mg/mouse/day by gastric intubation for 4 days; for GLYCAEMIA AT D5: D5, after 4 h fasting; for % change in glycaemia: glycaemia D5 versus D1; for GLYCAEMIA AT D1: 0.5 mg/mouse/day by gastric intubation, D1, start of treatment, after 4 h fasting
Protocol: as §1
I—Mice Made Diabetic with Streptozotocin
Swiss albino mice weighing between 22 and 25 g are made diabetic with streptozotocin administered by intraperitoneal injection at a dose of 210 or 265 mg/Kg of mouse, diluted in a citrate buffer at a concentration such that each mouse receives 0.2 ml of the solution on day 1 (D1). 3 to 4 days later, a check is made on 2 to 3 mice to see if the diabetes is established (glycaemia greater than 7.2 mmol/liter (130 mg per 100 ml). The glycaemia is then measured after starving for 4 hours. If the mice have become diabetic, they are divided into batches of 5 to 7 mice. Each of the batches receives, from D1 and daily, a selected dose of product. The administration is made once a day and at a fixed time, by gastric intubation and in a volume of 0.4 ml of distilled water as vehicle. Two batches of controls are made up:
one batch of untreated diabetic mice
These two batches of controls receive 0.4 ml of vehicle by gastric intubation and simultaneously with the treated mice.
The treatment lasts for 4 days. On the 5th day (D5), there is no administration of product. After fasting for 4 hours, the final glycaemias are measured.

[3] = oral toxicity (LD50) in mice; details: mouse, in vivo, orally in mice
Protocol: The mixtures according to the invention, the sodium oxamate and the compounds of formula (I) have a low toxicity. Their LD50 is greater than 2000 mg/kg orally in mice.

OCC(O)C(O)C(O)c1cnc(C(O)C(O)C(O)CO)cn1 (stereo not shown) [2,5-di(tetrahydroxybutyl)pyrazine, 2,5-di-(tetrahydroxybutyl)pyrazine]
GLYCAEMIA AT T0 [1]: 136.25 mg/100 ml
GLYCAEMIA AT T60 [1]: 102.41 mg/100 ml
% inhibition [1]: −24.83%

OCC(O)C(O)Cc1cnc(C(O)C(O)C(O)CO)cn1 (stereo not shown) [2-(tetrahydroxybutyl)-5-(2′,3′,4′-trihydroxybutyl)pyrazine]
GLYCAEMIA AT D5 [2]: 164.50 mg/100 ml
% change in glycaemia [2]: −45.93%
GLYCAEMIA AT D1 [2]: 304.25 mg/100 ml
GLYCAEMIA AT T0 [1]: 128.75 mg/100 ml
GLYCAEMIA AT T60 [1]: 90.50 mg/100 ml
% inhibition [1]: −29.70%

NC(=O)C(=O)[O-].[Na+] [Sodium oxamate, sodium oxamate]
GLYCAEMIA AT D5 [2]: 89.90 mg/100 ml
% change in glycaemia [2]: −41.46%
GLYCAEMIA AT D1 [2]: 153.40 mg/100 ml
GLYCAEMIA AT T0 [1]: 136.46 mg/100 ml
GLYCAEMIA AT T60 [1]: 102.93 mg/100 ml
% inhibition [1]: −24.57%
LD50 [3]: > 2000 mg/kg
